# Activity calls are given as the source filed them.
# Assays:
# [1] = biological target: Eukaryotic translation initiation factor 4E (Mus musculus, UniProt P63073); assay: blockers of eIF4G binding by eIF4E – biochemical, TR-FRET, dose response (AID 855); assay type: functional;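 also: potency for disrupting eIF4E binding to eIF4GI seen as loss of FRET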
# A549 = assay: viability loss in A549 cells – cell-based, plate reader, cherry-pick samples, cytotoxicity control, dose response (AID 687028); assay type: functional; details: Homo sapiens
# Protein skinhead-1 = biological target: T1, Protein skinhead-1 (Caenorhabditis elegans, UniProt P34707); assay type: functional
# T1 sequence (P34707 whole entry): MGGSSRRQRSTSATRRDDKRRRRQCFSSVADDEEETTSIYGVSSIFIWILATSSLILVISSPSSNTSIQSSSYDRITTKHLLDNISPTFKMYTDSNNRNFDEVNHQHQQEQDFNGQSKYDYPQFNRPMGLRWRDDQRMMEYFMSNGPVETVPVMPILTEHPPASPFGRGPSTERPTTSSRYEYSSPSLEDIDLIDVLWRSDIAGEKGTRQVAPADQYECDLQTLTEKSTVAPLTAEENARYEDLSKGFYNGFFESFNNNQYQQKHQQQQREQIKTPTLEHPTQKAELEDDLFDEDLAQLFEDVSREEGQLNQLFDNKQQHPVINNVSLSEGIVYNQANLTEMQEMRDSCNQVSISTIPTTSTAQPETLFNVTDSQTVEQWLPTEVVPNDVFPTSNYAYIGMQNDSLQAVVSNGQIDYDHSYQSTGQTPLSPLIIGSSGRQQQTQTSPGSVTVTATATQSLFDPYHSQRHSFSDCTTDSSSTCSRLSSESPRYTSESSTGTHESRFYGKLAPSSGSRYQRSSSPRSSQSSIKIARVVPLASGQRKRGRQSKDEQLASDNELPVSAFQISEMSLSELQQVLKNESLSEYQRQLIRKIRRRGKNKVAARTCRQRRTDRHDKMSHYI
# [2] = general cell-killing toxicity readout – plate reader, dry powder samples, cytotoxicity control for PAX8 inhibitor project, dose response (AID 743021); assay type: functional, cell-based
# [3] = viability loss in HEK293 cells – cell-based, plate reader, cherry-picked samples, cytotoxicity control, dose response (AID 743446); assay type: functional
# Paired box protein Pax-8 = Paired box protein Pax-8 (Homo sapiens, UniProt Q06710); assay: PAX8 transcriptional activity inhibition in RMG-I – RMG-I cells, luciferase, cherry-pick, dose response (AID 687027); assay type: functional, cell-based;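 also: luciferase reporter driven by Pax8 target thyroperoxidase promoter measured by SteadyGlo luminescence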
# HEK293 [4] = assay: inhibition of NOD1-driven NF-kB reporter – cell-based, luminescence, uHTS, primary screen (AID 1578); assay type: functional; details: Homo sapiens
# [5] = blockade of melanocortin 4 receptor signaling – cell-based, plate reader, cherry pick, counter-screen for LGR2 antagonist project, dose response (AID 743444); assay type: functional;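 also: transfected HEK 293 cells stimulated with alpha-MSH peptide; potency of inhibitors of the alpha-MSH evoked signal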
# [6] = biological target: Nucleotide-binding oligomerization domain-containing protein 2 (Homo sapiens, UniProt Q9HC29); assay: inhibition of NOD2-driven NF-kB reporter – cell-based, luminescence, uHTS, HEK293 (AID 1566); assay type: functional
# [7] = A549 cell cytotoxicity, dose response, cytotoxicity control, plate reader, cherry-pick, antagonist series (AID 743412); assay type: functional, cell-based
# HEK293 [8] = assay: cells; assay type: functional, cell-based; details: Homo sapiens
# HEK293 [9] = assay: NOD2 signaling inhibitors in MDP-stimulated cells, cell-based, uHTS, luminescence (AID 2001); assay type: functional; details: Homo sapiens
# HEK293 [10] = assay: cells; assay type: functional, cell-based; details: Homo sapiens; remark: listed apart in the source
# [11] = toxicity toward HepG2 liver cells – cell-based, plate reader, cherry-pick, antagonist series, cytotoxicity control, dose response (AID 743416); assay type: functional
# [12] = biological target: T2, Heat shock factor protein 1 (Mus musculus, UniProt P38532); assay: decrease of HSF1-responsive luciferase luminescence – cell-based, NIH3T3, dose retest, confirmation (AID 2382); assay type: functional;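 also: NIH3T3 fibroblasts with HSF1-driven luciferase reporter stressed by proteasome inhibitor MG132; luminescence from HSF1-driven luciferase expression after 8 hours of MG132 stress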
# T2 sequence (P38532 whole entry): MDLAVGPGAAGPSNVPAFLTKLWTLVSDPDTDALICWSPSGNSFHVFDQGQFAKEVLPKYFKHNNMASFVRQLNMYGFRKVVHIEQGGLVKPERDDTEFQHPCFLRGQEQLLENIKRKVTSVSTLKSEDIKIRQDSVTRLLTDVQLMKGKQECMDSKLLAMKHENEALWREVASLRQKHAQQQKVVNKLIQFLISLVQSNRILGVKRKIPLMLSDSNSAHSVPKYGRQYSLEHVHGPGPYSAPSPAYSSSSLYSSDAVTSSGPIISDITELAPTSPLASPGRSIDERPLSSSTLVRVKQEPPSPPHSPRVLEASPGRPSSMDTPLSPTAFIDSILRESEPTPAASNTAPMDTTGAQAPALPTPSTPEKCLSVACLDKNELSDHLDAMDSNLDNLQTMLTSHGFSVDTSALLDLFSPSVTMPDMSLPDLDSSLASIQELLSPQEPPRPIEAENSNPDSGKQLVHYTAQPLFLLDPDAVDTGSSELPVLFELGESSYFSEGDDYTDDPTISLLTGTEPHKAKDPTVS
# [13] = blockers of bursicon-stimulated LGR2 cAMP reporter – cell-based, HEK293, CRE-luciferase reporter, cherry pick, set 2, dose response (AID 743343); assay type: functional;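 also: transfected cells were stimulated with diluted bursicon conditioned medium after compound addition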
# HEK293 [14] = assay: cells; assay type: functional, cell-based; details: Homo sapiens; remark: listed apart in the source
# Major prion protein = Major prion protein (Homo sapiens, UniProt P04156); assay type: functional, cell-based
# cells [15] = assay: cells
# [16] = biological target: Long-chain-fatty-acid--AMP ligase FadD28 (Mycobacterium tuberculosis, UniProt P9WQ59); assay: Fluorescence polarization aasay to screen for inhibitors that compete for the binding of FadD28 to a bisubstrate Measured in Biochemical System Using Plate Reader - 2147-01_Inhibitor_Dose_CherryPick_Activity.; assay type: functional, Mycobacterium tuberculosis H37Rv
# cells [17] = assay: cells; remark: listed apart in the source
# [18] = biological target: Fructose-bisphosphate aldolase (Mycobacterium tuberculosis, UniProt P9WQA3); assay: Fluorescence-based biochemical high throughput dose response assay for inhibitors of the fructose-bisphosphate aldolase (FBA) of M. tuberculosis.; assay type: functional
# [19] = biological target: T3, Methionyl-tRNA synthetase, putative (Trypanosoma brucei brucei, UniProt Q38C91); assay type: functional, Trypanosoma brucei brucei strain 927/4 GUTat10.1
# T3 sequence (Q38C91 whole entry): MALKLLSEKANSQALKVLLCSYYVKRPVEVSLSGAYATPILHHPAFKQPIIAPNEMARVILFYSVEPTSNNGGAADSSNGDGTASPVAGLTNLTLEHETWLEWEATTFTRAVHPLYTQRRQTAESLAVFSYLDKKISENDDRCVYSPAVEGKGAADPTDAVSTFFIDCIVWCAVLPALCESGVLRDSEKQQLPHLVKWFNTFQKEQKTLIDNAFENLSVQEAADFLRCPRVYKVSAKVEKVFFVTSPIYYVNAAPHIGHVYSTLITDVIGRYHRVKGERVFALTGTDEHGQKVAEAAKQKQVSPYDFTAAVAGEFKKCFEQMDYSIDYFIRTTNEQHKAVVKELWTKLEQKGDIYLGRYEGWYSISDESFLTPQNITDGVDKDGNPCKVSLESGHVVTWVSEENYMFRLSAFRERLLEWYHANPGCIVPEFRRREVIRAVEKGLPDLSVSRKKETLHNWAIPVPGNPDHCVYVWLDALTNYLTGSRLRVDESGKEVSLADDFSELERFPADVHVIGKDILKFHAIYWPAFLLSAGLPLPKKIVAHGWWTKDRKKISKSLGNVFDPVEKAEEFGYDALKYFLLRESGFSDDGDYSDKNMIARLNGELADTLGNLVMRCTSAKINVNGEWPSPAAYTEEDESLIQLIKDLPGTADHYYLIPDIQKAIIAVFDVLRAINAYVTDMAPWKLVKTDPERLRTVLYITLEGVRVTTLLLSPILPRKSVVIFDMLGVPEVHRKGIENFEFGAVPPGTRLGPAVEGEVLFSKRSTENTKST
# [20] = biological target: T3, Methionyl-tRNA synthetase, putative; assay type: functional, Trypanosoma brucei brucei strain 927/4 GUTat10.1; remark: listed apart in the source
# [21] = Counterscreen for inhibitors of Trypanosoma brucei methionyl tRNA synthetase (MetRS): Luminescence-based cell-based high throughput dose response assay to identify compounds that are cytotoxic to Jurkat human T lymphocyte cells.; assay type: functional
# [22] = biological target: Luciferin 4-monooxygenase (Photinus pyralis, UniProt P08659); assay: inhibition of purified Photinus pyralis luciferase – biochemical, luminescence, dose response (AID 1891)
# [23] = Luminescence Cell-Based Dose Confirmation HTS to Identify Inhibitors of Platelet Dense Granule Release. [Related pubchem assays: 1663 (Primary HTS), 1678 (Summary of Project)]; assay type: functional
# [24] = biological target: T4, Oxysterols receptor LXR-beta (Homo sapiens, UniProt P55055); assay type: functional, cell-based;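 also: agonist activity at LXR measured by a cell-based luminescence readout across a dose range, run as a counterscreen for daf-12 agonists; HEK293 cells with Gal4-LXR fusion and GAL4-driven luciferase reporter; potency for activation of Gal4-LXR reporter so compounds are agonists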
# T4 sequence (P55055 whole entry): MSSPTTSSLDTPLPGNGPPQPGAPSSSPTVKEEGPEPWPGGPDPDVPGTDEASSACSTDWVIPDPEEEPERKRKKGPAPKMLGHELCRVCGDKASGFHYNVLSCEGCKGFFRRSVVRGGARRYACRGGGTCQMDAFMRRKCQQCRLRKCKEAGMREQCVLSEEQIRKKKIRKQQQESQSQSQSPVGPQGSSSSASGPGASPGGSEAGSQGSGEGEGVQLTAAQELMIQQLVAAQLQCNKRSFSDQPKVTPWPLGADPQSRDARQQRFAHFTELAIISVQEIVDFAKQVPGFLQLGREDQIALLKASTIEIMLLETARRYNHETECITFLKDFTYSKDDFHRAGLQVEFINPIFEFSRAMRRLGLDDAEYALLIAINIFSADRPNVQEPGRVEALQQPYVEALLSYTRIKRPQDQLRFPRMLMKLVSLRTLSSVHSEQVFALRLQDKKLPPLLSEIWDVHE
# [25] = cytotoxicity in HEK293 background cells – cell-based, dry powder, set 2, counter-screen for EBV LMP1 inhibitor project, dose response (AID 624374); assay type: functional
# [26] = biological target: T5, Rac GTPase-activating protein 1 (Homo sapiens, UniProt Q9H0H5); assay: blockers of MgcRacGAP-driven Rac1 GTP hydrolysis – biochemical, ADP Hunter fluorescence, primary and confirmatory, confirmation (AID 624330); assay type: functional
# T5 sequence (Q9H0H5 whole entry): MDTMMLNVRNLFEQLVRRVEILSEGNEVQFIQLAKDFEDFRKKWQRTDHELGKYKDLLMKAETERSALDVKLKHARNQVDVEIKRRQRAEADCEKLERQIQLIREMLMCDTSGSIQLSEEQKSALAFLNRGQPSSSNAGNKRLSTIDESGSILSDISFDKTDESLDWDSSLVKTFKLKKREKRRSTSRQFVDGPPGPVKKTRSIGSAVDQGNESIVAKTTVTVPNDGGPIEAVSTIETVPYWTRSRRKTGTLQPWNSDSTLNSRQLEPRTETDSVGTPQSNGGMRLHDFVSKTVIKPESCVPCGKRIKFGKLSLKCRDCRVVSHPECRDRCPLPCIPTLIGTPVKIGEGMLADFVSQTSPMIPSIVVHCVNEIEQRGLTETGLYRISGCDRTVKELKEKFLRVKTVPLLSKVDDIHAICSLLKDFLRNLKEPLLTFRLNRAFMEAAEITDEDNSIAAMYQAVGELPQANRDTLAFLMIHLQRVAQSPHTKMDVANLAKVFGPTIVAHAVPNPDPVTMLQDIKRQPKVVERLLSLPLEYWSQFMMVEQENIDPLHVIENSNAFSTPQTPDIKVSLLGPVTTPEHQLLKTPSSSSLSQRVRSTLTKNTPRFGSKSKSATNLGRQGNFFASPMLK
# [27] = viability loss in HeLa cells – cytotoxicity control for MgcRacGAP inhibitor project, dose response (AID 624300); assay type: functional
compound,measurement,setting,value
COc1ccc(OC)c(S(=O)(=O)N2CCN(c3c(C)cccc3C)CC2)c1,IC50,[1],> 64 µM (inactive)
same,AC50,A549,20.8 µM (active)
CC(C)c1ccc(-c2nc3ccccc3s2)cc1,IC50,Protein skinhead-1,75.6 µM (inactive)
same,AC50,[2],7.87 µM (active)
same,AC50,[3],34 µM (active)
same,AC50,Paired box protein Pax-8,5.31 µM (active)
same,EC50,HEK293 [4],4.67 µM (active)
same,AC50,[5],< 0.068 µM (active)
same,EC50,[6],0.02 µM (active)
same,AC50,[7],22.8 µM (active)
same,IC50,HEK293 [8],0.478 µM (active)
same,IC50,HEK293 [9],3.21 µM (active)
same,IC50,HEK293 [10],> 20 µM (inactive)
same,AC50,[11],> 52 µM (inactive)
same,EC50,[12],< 0.16 µM (active)
same,AC50,[13],0.133 µM (active)
same,IC50,HEK293 [14],> 20 µM (inactive)
COc1ccc(NC(=O)CCSc2ccc3ccccc3n2)cc1,IC50,Major prion protein,4.52 µM (active)
same,IC50,cells [15],> 138 µM (inactive)
COc1cc(C(S)=NCc2ccccc2)cc(Br)c1O,AC50,[16],53.6 µM (active)
COc1cccc2c(=O)c3c(cnn3C)n(C)c12,AC50,cells [17],2.16 µM (active)
Cc1cc(OCC(=O)NCCc2ccc(S(N)(=O)=O)cc2)c2c(C)c(C)c(=O)oc2c1,IC50,[18],1.1 µM (active)
COc1ccc(CCN2C(=S)N(C)C(=O)C2CC(=O)Nc2ccc(F)cc2)cc1 (stereo unspecified),IC50,[19],6.54 µM (active)
same,IC50,[20],2.69 µM (active)
same,IC50,[21],32.7 µM (inactive)
Cc1csc(NC(=O)c2cn3ccccc3n2)n1,EC50,[22],8.32 µM (active)
same,AC50,[3],47.2 µM (active)
same,EC50,[23],4.85 µM (active)
same,AC50,[5],1.92 µM (active)
same,AC50,[7],> 52 µM (inactive)
same,AC50,[11],> 52 µM (inactive)
same,AC50,[13],2.16 µM (active)
CCOC(=O)c1ccc(NC(S)=NNC(=O)C2(C)CC2(Cl)Cl)cc1 (stereo unspecified),AC50,[16],13.8 µM (active)
CCN1C(=O)C(CC(=O)Nc2ccc(OC)cc2)N(CCc2ccc(OC)cc2)C1=S (stereo unspecified),IC50,[19],13.1 µM (inactive)
same,IC50,[20],5.11 µM (active)
same,IC50,[21],52.4 µM (inactive)
O=C(CC(=O)c1cccs1)c1ccncc1,EC50,[24],> 67.5 µM (inactive)
CN(C)/C=N/C(=S)Nc1ccc(Cl)cc1,EC50,[24],> 67.5 µM (inactive)
Cc1noc(C)c1S(=O)(=O)Nc1ccc2c(c1)C(=O)N([C@@H](C)CO)C[C@@H](C)[C@H](CN(C)Cc1ccc(C(F)(F)F)cc1)OCCCC[C@H](C)O2,AbsAC35,[25],151.31 µM
Cc1c(O)ccc(/C(Cc2ccc3ccccc3n2)=N\O)c1O,IC50,[26],62.1 µM (active)
same,CC50,[27],100 µM (active)
